Experimental data taken from article PMC3692405, “Disease-associated mutations in CNGB3 promote cytotoxicity in photoreceptor-derived cells” (Molecular Vision, 2013).
Read-outs that look alike come from different tables or passages of the source.

Tests used:
[1] = target: T1, CNGA3 plus CNGB3 T383fsX channels (Homo sapiens, UniProt Q16281); assay: Inside-out patch-clamp recording of channels expressed in Xenopus oocytes (CNGB3 T383fsX); assay type: biochemical
T1 construct: expressed in transfected cells; host or cells: Xenopus laevis oocytes injected with cRNA transcribed from pGEMHE constructs
T1 sequence (Q16281 1-694): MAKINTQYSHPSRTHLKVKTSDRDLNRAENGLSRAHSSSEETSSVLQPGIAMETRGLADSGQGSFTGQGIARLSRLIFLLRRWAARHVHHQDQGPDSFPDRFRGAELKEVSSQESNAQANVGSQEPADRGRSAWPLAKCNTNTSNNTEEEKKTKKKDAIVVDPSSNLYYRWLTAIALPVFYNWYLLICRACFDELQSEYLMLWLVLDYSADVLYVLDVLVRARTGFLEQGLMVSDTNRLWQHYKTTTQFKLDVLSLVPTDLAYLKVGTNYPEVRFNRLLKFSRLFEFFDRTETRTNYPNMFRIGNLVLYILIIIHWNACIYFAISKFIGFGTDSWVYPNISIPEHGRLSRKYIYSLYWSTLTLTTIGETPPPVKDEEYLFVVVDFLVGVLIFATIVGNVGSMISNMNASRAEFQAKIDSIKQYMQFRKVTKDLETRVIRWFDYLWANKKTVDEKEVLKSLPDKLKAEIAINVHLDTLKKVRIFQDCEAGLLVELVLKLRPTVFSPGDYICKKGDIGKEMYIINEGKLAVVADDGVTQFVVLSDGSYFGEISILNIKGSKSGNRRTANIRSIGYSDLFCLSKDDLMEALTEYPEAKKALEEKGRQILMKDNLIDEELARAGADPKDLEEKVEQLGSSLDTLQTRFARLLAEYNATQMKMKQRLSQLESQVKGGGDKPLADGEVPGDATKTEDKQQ
Experimental: For heterologous expression in Xenopus laevis oocytes, identical amounts of cDNA were linearized using SphI or NheI, and capped cRNA was transcribed in vitro using the T-7 RNA polymerase mMESSAGE mMACHINE® kit (Ambion, Austin, TX). cRNA concentrations and relative amounts were determined by denaturing gel electrophoresis and KODAK 1D image analysis software (Rochester, NY), as well as by spectrophotometry. […] Oocytes were incubated in ND96 (96 mM NaCl, 2 mM KCl, 1.8 mM CaCl2, 1 mM MgCl2, and 5 mM HEPES, pH 7.6, supplemented with 10 μg/ml gentamycin).
Two to seven days after microinjection of cRNA, patch-clamp experiments were performed using the inside-out configuration with an Axopatch 200B amplifier (Axon Instruments, Foster City, CA). Recordings were made at 20–23 °C. Data were acquired using Pulse software (HEKA Elektronik, Lambrecht, Germany). Current traces were elicited by voltage steps from a holding potential of 0 mV to +80 mV, then to −80 mV and back to 0 mV. Initial pipette resistances were 0.4–0.8 megaohms. Intracellular and extracellular solutions contained 130 mM NaCl, 0.2 mM EDTA, and 3 mM HEPES (pH 7.2). Intracellular solutions were exchanged using an RSC-160 rapid solution changer (Molecular Kinetics, Indianapolis, IN). Currents in the absence of cyclic nucleotides were subtracted. For channel activation by CPT-cGMP or CPT-cAMP, dose–response data were fitted with the Hill equation, I/Imax=([cNMP]^h/(K1/2^h + [cNMP]^h)), where I is the current amplitude at +80 mV, Imax is the maximum current elicited by saturating concentration of ligand, [cNMP] is the ligand concentration, K1/2 is the apparent ligand affinity, and h is the Hill slope. We measured sensitivity to block by L-cis-diltiazem (RBI, Natick, MA) applied to the intracellular face of the patch in the presence of 0.1 μM CPT-cGMP. Data were fit with a modified Hill equation in the form I blocker/I=(K1/2^h/(K1/2^h + [blocker]^h)). Data were analyzed using Igor (Wavemetrics, Lake Oswego, OR), SigmaPlot, and SigmaStat (Systat Software Inc., San Jose, CA). All values are reported as the mean±standard error of the mean of n experiments unless otherwise indicated. Statistical significance was determined using a Student t test or Mann–Whitney rank sum test, and a p value of <0.05 was considered significant.

[2] = test system: 661W cells expressing CNGA3 plus WT CNGB3; assay: LDH-release cytotoxicity assay, cells expressing WT channels; assay type: cell-based, mouse; settings: 24 h
Experimental: The mouse photoreceptor 661W cell line used in this study was generously provided by Dr. Al-Ubaidi (University of Oklahoma Health Sciences Center, Oklahoma City, OK). The 661W cells were routinely maintained in Dulbecco’s modified Eagle’s medium (Gibco, Carlsbad, CA), supplemented with 10% fetal bovine serum (Gemini Bioproducts, Sacramento, CA) and 1% penicillin/streptomycin (Gibco), at 37 °C in a humidified incubator with 5% CO2; cells were subcultured every 3–5 days. The 661W cells were transfected with pOPRSVI plasmids encoding human cone CNG channel subunits using Lipofectamine™ 2000 and OptiMEM (Life Technologies, Carlsbad, CA) according to the manufacturer’s protocol for cells in suspension. […]
For most experiments, the LDH Cytotoxicity Detection Kit (Roche Applied Science) was used according to the manufacturer’s protocol (see also [37]). […] Following treatment, half of the culture medium was transferred to another 96-well plate and the LDH released into the culture medium was measured to assess the number of damaged/dead cells. Cells in the original plate were then lysed and the total amount of cellular LDH was assessed. The percentage cytotoxicity was then calculated from the ratio of LDH concentration in the medium/cells, and was normalized to the percentage cytotoxicity in untreated cells transfected with control pOPRSVI plasmid only.

Structure (SMILES) | relative agonist efficacy Imax, CPT-cAMP/Imax, CPT-cGMP ([1]; +80 mV, CPT-cAMP 100 μM vs CPT-cGMP 4 μM, mean±SEM, n=8) | Hill slope h, CPT-cAMP activation ([1]; Hill fit, mean±SEM, n=9) | EC50 ([1]; Hill fit, mean±SEM, n=9, read-out: apparent affinity K1/2, CPT-cAMP (channel activation)) [µM] | Hill slope h, CPT-cAMP, representative dose-response ([1]; representative patch, Figure 5A) | EC50 ([1]; representative patch, Figure 5A, read-out: K1/2, cAMP, representative dose-response for CPT-cAMP activation) [µM] | relative cytotoxicity (LDH release, normalized to untreated vector-only control) ([2]; 1 µM CPT-cAMP coapplied with 0.1 µM CPT-cGMP) | Hill slope h, CPT-cGMP activation ([1]; +80 mV, Hill fit, mean±SEM, n=8) | EC50 ([1]; +80 mV, Hill fit, mean±SEM, n=8, read-out: apparent CPT-cGMP affinity K1/2, CPT-cGMP (channel activation)) [µM] | maximum patch current density (Imax/area) ([1]; +80 mV, saturating CPT-cGMP (4 μM), mean±SEM, n=9) [pA/μm^2] | Hill slope h, CPT-cGMP, representative dose-response ([1]; representative patch, Figure 1B) | EC50 ([1]; representative patch, Figure 1B, read-out: K1/2, cGMP, representative dose-response for CPT-cGMP activation) [µM] | relative cytotoxicity (LDH release, normalized to untreated vector-only control) ([2]; 0.1 µM CPT-cGMP)
Nc1ncnc2c1nc(Sc1ccc(Cl)cc1)n2[C@@H]1O[C@@H]2COP(=O)(O)O[C@H]2[C@H]1O [CPT-cAMP, CPT-adenosine 3′,5′-cyclic monophosphate] | 0.07±0.01 | 1.8±0.1 | 29.8 ± 1.9 | 1.6 | 27.9 | 0.98±0.03 |  |  |  |  |  | 
Nc1nc2c(nc(Sc3ccc(Cl)cc3)n2[C@@H]2O[C@@H]3COP(=O)(O)O[C@H]3[C@H]2O)c(=O)[nH]1 [CPT-cGMP, 8-(4-chlorophenylthio) guanosine 3′,5′-cyclic monophosphate] |  |  |  |  |  |  | 2.2±0.1 | 0.105 ± 0.0073 | 86.6±17.0 | 1.9 | 0.111 | 1.11±0.04
